Data taken from publication PMC10319141, “Imidazoquinolines with improved pharmacokinetic properties induce a high IFNα to TNFα ratio in vitro and in vivo” (Frontiers in Immunology, 2023).
Where two headings read alike, the source gives them in different places.

Key:
human TLR7 = molecular target: T1, human TLR7 (Homo sapiens, UniProt Q9NYK1); assay: HEK-Blue hTLR7 SEAP reporter assay; assay type: cell-based; settings: for TLR7 activity rel. to assay max: average maximal SEAP secretion relative to maximum secretion observed in the assay
T1 construct: host or cells: HEK blue hTLR7 reporter cells
T1 sequence (Q9NYK1 27-1049): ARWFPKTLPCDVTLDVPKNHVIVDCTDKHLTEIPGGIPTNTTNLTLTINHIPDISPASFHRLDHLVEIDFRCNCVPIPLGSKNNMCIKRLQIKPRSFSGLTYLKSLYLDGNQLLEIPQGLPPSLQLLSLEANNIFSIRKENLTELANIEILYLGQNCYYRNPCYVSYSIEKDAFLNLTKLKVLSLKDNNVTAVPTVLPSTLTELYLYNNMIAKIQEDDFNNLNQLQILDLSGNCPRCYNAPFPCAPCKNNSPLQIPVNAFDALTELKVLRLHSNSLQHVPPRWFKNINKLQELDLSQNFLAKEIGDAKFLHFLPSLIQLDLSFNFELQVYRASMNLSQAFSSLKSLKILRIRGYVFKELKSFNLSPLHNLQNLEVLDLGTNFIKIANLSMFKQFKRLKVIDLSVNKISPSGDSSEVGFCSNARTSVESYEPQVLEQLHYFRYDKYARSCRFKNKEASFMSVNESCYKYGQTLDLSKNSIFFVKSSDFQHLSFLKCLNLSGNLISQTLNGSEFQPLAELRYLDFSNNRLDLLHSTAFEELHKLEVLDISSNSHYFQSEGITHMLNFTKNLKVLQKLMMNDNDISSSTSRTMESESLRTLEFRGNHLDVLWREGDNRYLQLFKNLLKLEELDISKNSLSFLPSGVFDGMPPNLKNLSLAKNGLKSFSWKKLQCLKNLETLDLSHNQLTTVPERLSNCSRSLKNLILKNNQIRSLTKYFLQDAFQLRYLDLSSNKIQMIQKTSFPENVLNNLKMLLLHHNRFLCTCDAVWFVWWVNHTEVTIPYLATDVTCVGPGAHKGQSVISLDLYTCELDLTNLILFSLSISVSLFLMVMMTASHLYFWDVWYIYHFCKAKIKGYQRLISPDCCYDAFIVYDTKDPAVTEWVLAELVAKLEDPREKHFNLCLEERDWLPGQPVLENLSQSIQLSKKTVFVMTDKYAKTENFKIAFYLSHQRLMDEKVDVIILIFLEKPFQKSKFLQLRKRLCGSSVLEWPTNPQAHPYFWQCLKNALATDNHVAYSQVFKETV
Procedure: HEK blue hTLR7 or hTLR8 reporter cells (Invivogen) were cultivated in DMEM High Glucose (Biowest) according to the manufacturer’s instructions. Cells were treated with test compounds and controls at various concentrations in serum-free DMEM and incubated at 37°C, 5% CO2 for 24 h before supernatants were collected.
Relative secreted embryonic alkaline phosphatase (SEAP) activity in the supernatants was determined by quantification of para-Nitrophenyl Phosphate (pNPP)-turnover. Supernatants were diluted 10-fold in a solution containing 1 mM MgCl2, 1 M diethanolamine and 1 mg/mL pNPP and incubated at RT for 15 min before the reaction was stopped by the addition of 0.25 volumes of 1 M NaOH. Absorbance was measured at 405 nm on a Versamax microplate reader (Molecular Devices) and normalized to the mean of >5 solvent controls.
To obtain reliable estimates, replicate measurements of a minimum of 2 experiments were normalized to the maximal SEAP activity of a compound in a given experiment and pooled before fitting a non-linear function to the data.

[1] = test system: TNFα and IFNα in peripheral plasma; assay: Cytokine induction after three consecutive daily s.c. treatments (Figure 6A, C); assay type: in vivo, mice; settings: in words; for type I Interferon concentrations in plasma after the second treatment: repeated daily s.c. treatment; for secretion of TNFα after repeated treatments in comparison with IMQ and RSQ: three daily s.c. treatments
Procedure: Cytokine concentrations in samples were quantified either by ELISA (hTNFα, R&D Systems; hIFNα, Mabtech) or cytometric bead arrays (CBA, LegendPlex mouse anti-virus response panel, BioLegend) according to the manufacturer’s instructions. CBAs were acquired on a ZE5 Cell Analyzer (Bio-Rad) and analyzed using the LegendPlex Software Suite (Qognit/BioLegend). Absorbance of ELISA-samples was quantified using a Versamax microplate reader (Molecular Devices).
Formulation. Test compounds were prepared for application in either 1% Tween 80, 9% PEG400 in ultrapure water (Biowest) (i.v., i.p., p.o. application) or 5 mM citric acid in 0.9% saline (Braun) (subcutaneous application). If compounds were administered subcutaneously, injections were carried out into the neck crease.
Collection of Samples. Mice were bled from the tail vein at various timepoints. Heparin (Sigma) or K2-EDTA (Sigma) was added to blood samples to a final […] concentration of 10-15 Unit or 5 mM. Plasma was generated by centrifugation at 6800xg for 8 min at 4°C and stored at -80°C until analyzed by ELISA or CBA. Animals were sacrificed after the indicated time points by CO2 inhalation. Heart blood and organs for compound quantification by HPLC-MS/MS were collected post mortem and stored at –20°C until extracted as described above.
Dotted lines indicate the time of repeated compound applications. (A) Cytokine levels in pooled tail plasma of mice from individual treatment groups (n=3 per pool and time point), error bars represent range of two replicate measurements. (B) Peripheral blood was collected from the tail vein before, 15, 30 60, 120, 240, 360 and 480 min after s.c. treatment. Compound concentration in peripheral plasma was analyzed by HPLC-MS/MS, data presented as mean ± SD.

[2] = 95% CI, HEK-blue human TLR7, 24 h, read-out: TLR7 EC50
[3] = Figure S3, axis c/[µM], pooled from 3 experiments, read-out: compound-specific EC50 in dose response plot, HEK Blue hTLR7

| SMILES | Average maximal activity in HEK-Blue hTLR7 relative to RSQ (human TLR7) | EC50 (human TLR7; [2]) | EC50 (human TLR7; [3]) | TLR7 activity rel. to assay max (human TLR7) | type I Interferon concentrations in plasma after the second treatment [1] | secretion of TNFα after repeated treatments in comparison with IMQ and RSQ [1] |
| --- | --- | --- | --- | --- | --- | --- |
| CCCCc1nc2c(N)nc3ccccc3c2n1CCC1CCN(C(=O)CN(C)CC(=O)N(C)C2CC(C)OC(OC3C(C)C(OC4CC(C)(OC)C(O)C(C)O4)C(C)C(=O)OC(CC)C(C)(O)C(O)C(C)N(C)CC(C)CC3(C)O)C2O)CC1 (centres unmarked) [A1-mac] | 41% | 0.4 to 0.74 µM | 0.554 µM | 41% ± 8% | at the limit of detection | remained low |
| CCCCc1nc2c(N)nc3ccccc3c2n1CCC1CCNCC1 [A1] | 58% | 0.096 to 0.22 µM | 0.146 µM | 58% ± 16% | at the limit of detection | remained low |
| CCCCc1nc2c(N)nc3ccccc3c2n1CC1CCN(C(=O)CN(C)CC(=O)N(C)[C@H]2C[C@@H](C)O[C@@H](O[C@@H]3[C@@H](C)[C@H](O[C@H]4C[C@@](C)(OC)[C@@H](O)[C@H](C)O4)[C@@H](C)C(=O)O[C@H](CC)[C@@](C)(O)[C@H](O)[C@@H](C)N(C)C[C@H](C)C[C@@]3(C)O)[C@@H]2O)CC1 [A2-mac] | 63% | 1.5 to 2 µM | 1.76 µM | 63% ± 9% |  |  |
| CCOCc1nc2c(N)nc3ccccc3c2n1CC(C)(C)O [RSQ, Resiquimod, reference compound] |  |  |  | 95% ± 5% |  |  |
